# Experiments:
# [1] = In vivo PK study in male ICR mice; details: mouse, 25 umol/kg
# Text: (A) Chemical structure of KCL-HO-1i. […] (G-I) Schematic depicting the transgene of the HO-1 reporter mice (HO-1^Luc/eGFP) (upper panel) and the experimental outline (below) (G). […] Whole mouse total photon flux at each timepoint and condition was quantitated (H). Heat map displaying luciferase expression across the indicated dissected tissues (left panel) and their percentage change relative to vehicle treated animals (right panel) (I) (cohorts of n=6 mice). Images in panel (D) and (G) were created using BioRender. Bar charts show the mean, error bars SD, and the dots show individual data points from individual mice. Line charts display the mean and SEM. * P<0.05, ** P<0.01, **** P<0.0001.
# Pharmacokinetics studies were performed by Pharmacology Discovery Services (PDS) Taiwan, Ltd. as a contract research organization. A single dose of 25 µMol/Kg was administered to male ICR mice via the indicated route and blood aliquots (∼300 μL) were obtained via cardiac puncture from euthanised mice using tubes coated with lithium heparin at the indicated times. Blood samples were then gently mixed and centrifuged at 2,500 x g for 15 min at 4 °C within an hour of collection. Subsequently, the plasma samples were harvested and stored frozen at -70°C until further processing. The plasma samples underwent methanol (MeOH) precipitation and were analysed using LC-MS/MS. An Agilent Poroshell 120 EC-C18 column with dimensions of 2.7 μm (3.0 x 50 mm) was utilized for chromatographic separation. The mobile phase consisted of 0.2 % formic acid (FA) in water (solvent A) and 0.2 % FA in acetonitrile (ACN; solvent B), with a gradient from 10 % to 80 % (solvent B) over a 2.5-min period at a flow rate of 0.5 mL/min with a sample injection volume of 5 µL. The bioanalytical method involved utilizing mouse plasma as the sample matrix and 20 μL of sample into a well of a 96-well plate. Subsequently, 300 μL of 0.01 ng/μL oxybutynin internal standard (IS) in MeOH was added to each well, excluding double blank (00) and carryover. For the double blank well and carryover, 300 μL of MeOH was added. After vortexing for 1 min and centrifuging at 1000 x g for 5 min, 200 μL of supernatant was taken and mixed with 300 μL of MeOH/water (50/50) for LC-MS/MS analysis. Finally, the exposure levels (ng/mL) of KCL-HO1i in plasma samples were determined using LC-MS/MS.
# [2] = system: MMTV-PyMT mice; assay: Toxicity evaluation of MMTV-PyMT mice after 21 days of treatment; format: in vivo, mouse; details: KCL-HO-1i p.o. and/or gemcitabine i.p.
# Description: (D-G) The MMTV-PyMT mice in (B) were evaluated for evidence of toxicity, including weight change from treatment initiation (D), end of treatment (day 21) plasma ratio of AST:ALT enzymes (E), blood circulating immune cells assessed using flow cytometry (F) and pathology assessment of inflammatory cell infiltrate in the lungs alongside an additional cohort or WT non-tumor bearing mice given dual treatment for 21 days and then assessed at treatment cessation or 30 days after treatment cessation (G). Image in panel (A) was created using BioRender. Bar charts show the mean, error bars SD, and the dots show individual data points from individual tumors and mice. Line charts display the mean and SEM. Gemc.; gemcitabine. * P<0.05, ** P<0.01.
# Tissue sections (3µm) were cut from FFPE tissues from the brain, lung, heart, kidney, and liver of treated animals and mounted onto Plus^+ Frost slides (Solmedia). […] Tissue sections were initially examined unblinded and then re-evaluated blinded to confirm the significant findings ([77]). Findings in the tissue were scored using a non-linear semiquantitative grading system from 0 to 5 where 0 = no significant change and 5 = whole organ or tissue affected ([78]). Where grading was not appropriate, findings were scored ‘present’ (P) if seen. In addition, an approximate number of lung metastases was recorded in parentheses after P if present ([78]). […]
Compound,maximum serum concentration (Cmax) ([1]; ip),serum half-life (T1/2) ([1]; ip),time to maximum serum concentration (Tmax) ([1]; ip),oral bioavailability ([1]; po),immune cell composition of the blood [2]
Sn (IV) mesoporphyrin IX dichloride [SnMP],68 ± 19 µg/mL,4 h,1 h,not orally bioavailable,–
Nc1ccn([C@@H]2O[C@H](CO)[C@@H](O)C2(F)F)c(=O)n1 [gemcitabine],–,–,–,–,unaffected
